Values joined by “and” are separate entries in the source; they are usually repeats but may differ in a detail not shown here. Equal entries are not always repeated.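 Cells were grown in 96-well plates and exposed to each compound for 48 hours at five concentrations; endpoints were interpolated linearly between bracketing concentrations, or set to the highest concentration if not reached. GI50 marks 50% less growth.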 Active and inactive are the calls of the source. No stated cut-off is given here; in the data, active = GI50 up to about 1.1 µM and inactive = higher.
Assays:
Assay in all cases: inhibition of tumour cell growth, NCI panel, 48 h
CAKI-1 = system: CAKI-1
BT-549 = system: BT-549
PC-3 = system: PC-3
NCI-H226 = system: NCI-H226
RXF 393 = system: RXF 393
HOP-92 = system: HOP-92
NCI/ADR-RES = system: NCI/ADR-RES
Malme-3M = system: Malme-3M
MDA-MB-435 = system: MDA-MB-435
SK-MEL-2 = system: SK-MEL-2
T47D = system: T47D
SNB-75 = system: SNB-75
Hs-578T = system: Hs-578T
SK-MEL-28 = system: SK-MEL-28
MCF7 = system: MCF7
HCC 2998 = system: HCC 2998
MDA-N = system: MDA-N
DU-145 = system: DU-145
A498 = system: A498
SNB-19 = system: SNB-19
SF-268 = system: SF-268
CCRF-CEM = system: CCRF-CEM
UO-31 = system: UO-31
HT-29 = system: HT-29
HCT-15 = system: HCT-15
NCI-H23 = system: NCI-H23
IGROV-1 = system: IGROV-1
NCI-H460 = system: NCI-H460
SK-MEL-5 = system: SK-MEL-5
OVCAR-4 = system: OVCAR-4
OVCAR-8 = system: OVCAR-8
KM12 = system: KM12
SK-OV-3 = system: SK-OV-3
SR = system: SR
OVCAR-5 = system: OVCAR-5
HOP-62 = system: HOP-62
K562 = system: K562
NCI-H522 = system: NCI-H522
HL-60 = system: HL-60
A549 = system: A549
786-0 = system: 786-0
HCT-116 = system: HCT-116
UACC-257 = system: UACC-257
LOX IMVI = system: LOX IMVI
MOLT-4 = system: MOLT-4
SF-539 = system: SF-539
U-251 = system: U-251
ACHN = system: ACHN
OVCAR-3 = system: OVCAR-3
SF-295 = system: SF-295
SW-620 = system: SW-620
MDA-MB-231 = system: MDA-MB-231
SN12C = system: SN12C
M14 = system: M14
COLO 205 = system: COLO 205
UACC-62 = system: UACC-62
TK-10 = system: TK-10
RPMI-8226 = system: RPMI-8226
EKVX = system: EKVX

Measured: GI50

COc1c(OC(C)C)cc2cc(O)c(C(=O)NC3Cc4ccc(c(Cl)n4)O[C@@H]4C=C5C#C/C(=C\C#CC6OC56C4OC4CC(C)(O)C(O)C(C)O4)C(OC4CC(O)C(N(C)C)C(C)O4)COC3=O)cc2c1OC (some centres undefined)
inactive: CAKI-1 10.9 µM | BT-549 > 36.3 µM | PC-3 35.8 µM | NCI-H226 > 36.3 µM | RXF 393 > 36.3 µM | HOP-92 > 36.3 µM | NCI/ADR-RES > 36.3 µM | Malme-3M > 36.3 µM | MDA-MB-435 > 36.3 µM | SK-MEL-2 > 36.3 µM | T47D > 36.3 µM | SNB-75 > 36.3 µM | Hs-578T > 36.3 µM | SK-MEL-28 > 36.3 µM | MCF7 2.64 µM | HCC 2998 > 36.3 µM | MDA-N > 36.3 µM | DU-145 11.5 µM | A498 > 36.3 µM

COC1=CC(=O)C[C@@H](C)[C@]12Oc1c(Cl)c(OC)cc(OC)c1C2=O [GRISEOFULVIN]
22.8 µM: HCT-15
inactive: SNB-19 35.2 µM | SF-268 > 68.9 µM | CAKI-1 9.53 µM | CCRF-CEM 33.3 µM | UO-31 43.7 µM | HT-29 16.8 µM | NCI-H23 42.1 µM | IGROV-1 17.4 µM | BT-549 > 39.5 µM | NCI-H460 28 µM | SK-MEL-5 7.62 µM | OVCAR-4 38.2 µM | OVCAR-8 30.1 µM | PC-3 10.8 µM | KM12 6.04 µM | SK-OV-3 35.4 µM | SR 7.48 µM | OVCAR-5 > 91.6 µM | NCI-H226 52.8 µM | HOP-62 49.9 µM | RXF 393 10.5 µM | K562 3.47 µM | NCI-H522 8.11 µM | HOP-92 > 34.3 µM | NCI/ADR-RES 12.3 µM | Malme-3M 76.4 µM | MDA-MB-435 2.42 µM | SK-MEL-2 > 71.6 µM | T47D 38.2 µM | HL-60 6.7 µM | SNB-75 4.5 µM | A549 63.5 µM | 786-0 50.1 µM | HCT-116 11.8 µM | Hs-578T 11.9 µM | UACC-257 > 20.5 µM | SK-MEL-28 99.3 µM | LOX IMVI 18.7 µM | MOLT-4 39.9 µM | SF-539 14.6 µM | U-251 27.7 µM | ACHN 67.3 µM | OVCAR-3 37.3 µM | SF-295 21.8 µM | SW-620 7.62 µM | MDA-MB-231 6.41 µM | SN12C 40.5 µM | M14 9.48 µM | COLO 205 9.89 µM | UACC-62 18.6 µM | MCF7 9.62 µM | HCC 2998 17.2 µM | TK-10 > 85.1 µM | RPMI-8226 19.4 µM | EKVX > 100 µM | DU-145 39.7 µM | A498 > 47.2 µM

CCOC(=O)C(NC(=O)c1ccccc1)(N1CCN(c2cc3c(cc2F)c(=O)c(C(=O)O)cn3C2CC2)CC1)C(F)(F)F (centres undefined)
inactive: SNB-19 29.2 µM | SF-268 18.1 µM | CAKI-1 19.3 µM | CCRF-CEM 3.37 µM | UO-31 23 µM | NCI-H23 15.1 µM | IGROV-1 30.4 µM | BT-549 21.8 µM | NCI-H460 21 µM | SK-MEL-5 15.8 µM | OVCAR-4 22.5 µM | OVCAR-8 31.3 µM | PC-3 23.6 µM | KM12 16.8 µM | SK-OV-3 28.6 µM | SR 20.5 µM | OVCAR-5 20.4 µM | NCI-H226 21.2 µM | HOP-62 31 µM | RXF 393 19.5 µM | K562 20.2 µM | HOP-92 19.8 µM | Malme-3M 20.2 µM | MDA-MB-435 21.1 µM | SK-MEL-2 18.7 µM | T47D 20.6 µM | HL-60 14.4 µM | SNB-75 24 µM | A549 34 µM | 786-0 32.4 µM | HCT-116 17.1 µM | Hs-578T 26.2 µM | SK-MEL-28 28 µM | MOLT-4 14.1 µM | SF-539 15.2 µM | U-251 29.9 µM | ACHN 23.9 µM | OVCAR-3 23.4 µM | SF-295 27 µM | SW-620 21.5 µM | MDA-MB-231 12.9 µM | SN12C 26.4 µM | M14 19.6 µM | COLO 205 17.1 µM | UACC-62 22 µM | HCC 2998 22.5 µM | MDA-N 21.1 µM | RPMI-8226 23.1 µM | EKVX 24.9 µM | DU-145 27.5 µM | A498 28.1 µM

COc1ccc(-c2[nH]c(=O)n(C3OC(CO)C(O)C(O)C3O)c(=O)c2C#N)cc1 (centres undefined)
> 100 µM: HCT-15
inactive: SNB-19 > 100 µM | SF-268 > 100 µM | CAKI-1 > 100 µM | CCRF-CEM > 100 µM | UO-31 > 100 µM | HT-29 > 100 µM | NCI-H23 > 100 µM | IGROV-1 > 100 µM and 86.1 µM | BT-549 > 100 µM | NCI-H460 > 100 µM | SK-MEL-5 > 100 µM | OVCAR-4 > 100 µM | OVCAR-8 > 100 µM | PC-3 > 100 µM | KM12 > 100 µM | SK-OV-3 > 100 µM | SR > 100 µM | OVCAR-5 > 100 µM | NCI-H226 > 100 µM | HOP-62 > 100 µM | RXF 393 > 100 µM | K562 > 100 µM | NCI-H522 > 100 µM | HOP-92 > 100 µM | NCI/ADR-RES > 100 µM | MDA-MB-435 > 100 µM | SK-MEL-2 > 100 µM | T47D > 100 µM | SNB-75 > 100 µM | A549 > 100 µM | 786-0 > 100 µM | HCT-116 > 100 µM | Hs-578T > 100 µM | UACC-257 > 100 µM | SK-MEL-28 > 100 µM | MOLT-4 > 100 µM | SF-539 > 100 µM | U-251 > 100 µM | ACHN > 100 µM | OVCAR-3 > 100 µM | SF-295 > 100 µM | SW-620 > 100 µM | MDA-MB-231 > 100 µM and 81.5 µM | SN12C > 100 µM | M14 > 100 µM | COLO 205 > 100 µM | UACC-62 > 100 µM | MCF7 > 100 µM | HCC 2998 > 100 µM | TK-10 > 100 µM | RPMI-8226 > 100 µM | EKVX > 100 µM | DU-145 > 100 µM | A498 > 100 µM

Cc1ccc(-c2sc(-c3ccc(C)cc3)c3c2C2CCC3C2)cc1
> 50 µM: HCT-15
inactive: SNB-19 > 50 µM | SF-268 > 50 µM | CAKI-1 > 50 µM | CCRF-CEM > 50 µM | UO-31 > 50 µM | HT-29 > 50 µM | NCI-H23 > 50 µM | IGROV-1 > 50 µM | BT-549 > 50 µM | NCI-H460 > 50 µM | SK-MEL-5 > 50 µM | OVCAR-4 > 50 µM | OVCAR-8 > 50 µM | PC-3 > 50 µM | KM12 > 50 µM | SK-OV-3 > 50 µM | SR > 50 µM | OVCAR-5 > 50 µM | NCI-H226 > 50 µM | HOP-62 > 50 µM | RXF 393 > 50 µM | K562 > 50 µM | NCI-H522 > 50 µM | HOP-92 > 50 µM | NCI/ADR-RES > 50 µM | Malme-3M > 50 µM | MDA-MB-435 > 50 µM | SK-MEL-2 > 50 µM | T47D > 50 µM | HL-60 > 50 µM | A549 > 50 µM | 786-0 > 50 µM | HCT-116 > 50 µM | Hs-578T > 50 µM | UACC-257 > 50 µM | SK-MEL-28 > 50 µM | LOX IMVI > 50 µM | MOLT-4 > 50 µM | SF-539 > 50 µM | U-251 > 50 µM | ACHN > 50 µM | OVCAR-3 > 50 µM | SF-295 > 50 µM | SW-620 > 50 µM | MDA-MB-231 > 50 µM | SN12C > 50 µM | M14 > 50 µM | COLO 205 > 50 µM | UACC-62 > 50 µM | TK-10 > 50 µM | MDA-N > 50 µM | RPMI-8226 > 50 µM | EKVX > 50 µM | DU-145 > 50 µM | A498 > 50 µM
